12 compounds from US10934255B2, “Nrf and HIF activators/HDAC inhibitors and therapeutic methods using the same” (THE BOARD OF TRUSTEES OF THE UNIVERSITY OF ILLINOIS, priority 2017, dated 2021) can be followed below.

Assay [1] concerns the target T1, Human HDAC6 (Homo sapiens, UniProt Q9UBN7).
T1 construct: Full length with N-terminal GST tag, MW=159 kDa; GST (N); host or cells: Sf9 insect cells (baculovirus)
T1 sequence (Q9UBN7 1-1215): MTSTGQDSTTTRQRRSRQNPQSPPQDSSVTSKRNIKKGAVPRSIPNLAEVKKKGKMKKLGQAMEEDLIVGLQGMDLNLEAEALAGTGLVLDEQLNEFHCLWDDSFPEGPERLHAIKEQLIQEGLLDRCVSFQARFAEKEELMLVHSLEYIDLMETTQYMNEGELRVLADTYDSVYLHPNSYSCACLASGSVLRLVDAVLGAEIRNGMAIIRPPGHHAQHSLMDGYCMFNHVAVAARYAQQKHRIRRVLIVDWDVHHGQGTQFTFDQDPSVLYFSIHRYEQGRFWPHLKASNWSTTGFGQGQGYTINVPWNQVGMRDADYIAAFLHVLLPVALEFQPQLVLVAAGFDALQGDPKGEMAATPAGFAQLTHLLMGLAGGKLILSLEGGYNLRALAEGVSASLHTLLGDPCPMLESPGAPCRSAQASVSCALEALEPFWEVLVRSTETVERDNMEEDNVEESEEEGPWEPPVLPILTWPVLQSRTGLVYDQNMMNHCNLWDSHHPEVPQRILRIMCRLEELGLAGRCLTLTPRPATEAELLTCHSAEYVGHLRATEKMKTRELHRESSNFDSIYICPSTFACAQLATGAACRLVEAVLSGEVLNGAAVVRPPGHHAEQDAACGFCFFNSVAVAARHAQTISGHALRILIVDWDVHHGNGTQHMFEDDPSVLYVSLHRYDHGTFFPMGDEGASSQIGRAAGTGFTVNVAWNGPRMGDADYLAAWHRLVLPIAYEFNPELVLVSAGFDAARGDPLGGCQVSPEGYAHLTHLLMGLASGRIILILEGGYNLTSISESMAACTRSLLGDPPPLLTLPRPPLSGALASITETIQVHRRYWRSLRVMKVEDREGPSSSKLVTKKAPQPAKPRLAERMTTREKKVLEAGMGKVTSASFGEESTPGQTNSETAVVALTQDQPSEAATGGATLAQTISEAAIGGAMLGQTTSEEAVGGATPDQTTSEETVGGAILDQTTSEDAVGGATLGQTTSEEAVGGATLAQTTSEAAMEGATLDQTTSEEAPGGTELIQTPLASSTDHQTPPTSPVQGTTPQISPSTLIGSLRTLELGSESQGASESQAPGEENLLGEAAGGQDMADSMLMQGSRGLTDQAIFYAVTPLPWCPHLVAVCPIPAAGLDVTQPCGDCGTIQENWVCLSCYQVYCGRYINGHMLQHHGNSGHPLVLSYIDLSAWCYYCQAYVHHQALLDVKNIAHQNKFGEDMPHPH
Kind of assay: HDAC6 inhibition assay (fluorogenic p53 peptide substrate). The assay is classed as biochemical. The following applies: Table 1; performed by Reaction Biology Corporation; read-out: HDAC isoform IC50 (nM) 6. The procedure: (§1) The HDAC1, 2, 4, 5, 6, 7, 8, 9, 10, and 11 assays used isolated recombinant human protein; HDAC3/NcoR2 complex was used for the HDAC3 assay. Substrate for HDAC1, 2, 3, 6, 10, and 11 assays is a fluorogenic peptide from p53 residues 379-382 (RHKKAc); substrate for HDAC8 is fluorogenic diacyl peptide based on residues 379-382 of p53 (RHKAcKAc). Acetyl-Lys(trifluoroacetyl)-AMC substrate was used for HDAC4, 5, 7, and 9 assays. Compounds were dissolved in DMSO and tested in 10-dose IC50 mode with 3-fold serial dilution starting at 30 μM. Control Compound Trichostatin A (TSA) was tested in a 10-dose IC50 with 3-fold serial dilution starting at 5 μM. IC50 values were extracted by curve-fitting the dose/response slopes. Assays were performed in duplicate and IC50 values are an average of data from both experiments.
Human HDAC6 (GenBank Accession No. BC069243): Full length with N-terminal GST tag, MW=159 kDa, expressed by baculovirus expression system in Sf9 cells. Enzyme is in 50 mM Tris-HCl, pH 8.0, 138 mM NaCl, 20 mM glutathione, and 10% glycerol, and stable for >6 months at −80° C. Purity is >90% by SDS-PAGE. Specific Activity is 50 U/μg, where one U=1 pmol/min under assay condition of 25 mM Tris/Cl, pH8.0, 137 mM NaCl, 2.7 mM KCl, 1 mM MgCl2, and 0.1 mg/ml BSA, 30 μM HDAC substrate, and 5 ng/μl HDAC6, incubation for 60 min at 30° C.
(§2) Substrate for HDAC1 and HDAC6: Acetylated peptide substrate for HDAC, based on residues 379-382 of p53 (Arg-His-Lys-Lys(Ac)), a site of regulatory acetylation by the p300 and CBP acetyltransferases (lysines 381, 382)1-6, is the best for HDAC from among a panel of substrates patterned on p53, histone H3 and histone H4 acetylation sites7.
(§3) Reaction Buffer: 50 mM Tris-HCl, pH 8.0, 137 mM NaCl, 2.7 mM KCl, 1 mM MgCl2, 1 mg/ml BSA.
HDAC6: 12.6 nM HDAC6 and 50 μM HDAC substrate are in the reaction buffer and 1% DMSO final. Incubate for 2 hours at 30° C.
(§4) All IC50 values are automatically calculated using the GraphPad Prism version 5 and Equation of Sigmoidal dose-response (variable slope): Y=Bottom+(Top−Bottom)/(1+10^((Log EC50−X)*HillSlope)), where X is the logarithm of concentration, Y is the response, Y starts at Bottom and goes to Top with a sigmoid shape. In most cases, “Bottom” is set 0, and “Top” is set “less than 120%”. This is identical to the “four parameter logistic equation”. IC50 curves also are drawn using the GraphPad Prism, and IC50 values and Hill slopes are provided.
(§5) HDAC Activity Assays: HDAC assay is performed using fluorescently-labeled acetylated substrate, which comprises an acetylated lysine side chain. After incubation with HDAC, deacetylation of the substrate sensitizes the substrate such that, in a second step, treatment with the detection enzyme produces a fluorophore. HDACs 1 and 6 were expressed as full length fusion proteins. Purified proteins were incubated with 50 μM fluorescently-labeled acetylated peptide substrate and test compound for 2 hours at RT in HDAC assay buffer containing 50 mM Tris-HCl (pH 8.0), 137 mM NaCl, 2.7 mM KCl, 1 mM MgCl2, 1% DMSO, and 1% BSA.
(§6) Reactions were terminated by the addition of the Developer after 2 hours, and the development of fluorescence signal, which was relative to the amount of deacetylated peptide, was monitored by time-course measurement of EnVision (PerkinElmer). The HDAC activity was estimated from the slope of time-course measurement of the fluorescence intensity. The slope of no-enzyme control (substrate alone) was served as background, and % Enzyme activity was calculated using background-subtracted slope of no inhibitor control (DMSO) as 100% activity.

Assay [2] relates to Nrf2. Kind of assay: Nrf2 activation, Neh2-luc reporter assay. Format: cell-based. The following applies: measured at 10 μM. As to the method:
(§7) The present compounds were evaluated for an ability to activate Nrf2 and HIF-1α. Table 1 summarizes Nrf2 activation data obtained in Neh2-luc reporter assay; and HIF1 activation measured in ODD reporter assay.

Assay [3] addresses T2, Human HDAC1 (Homo sapiens, UniProt Q13547).
T2 construct: Full length with C-terminal GST tag, MW=79.9 kDa; GST (C); host or cells: Sf9 insect cells (baculovirus)
As to the kind of experiment: HDAC1 inhibition assay (fluorogenic p53 peptide substrate). The following applies: Table 1; performed by Reaction Biology Corporation; read-out: HDAC isoform IC50 (nM) 1. Format: biochemical. The procedure: as §1
Human HDAC1 (GenBank Accession No. NM_004964): Full length with C-terminal GST tag, MW=79.9 kDa, expressed by baculovirus expression system in Sf9 cells. Enzyme is in 50 mM Tris-HCl, pH 8.0, 138 mM NaCl, 20 mM glutathione, and 10% glycerol, and stable for >6 months at −80° C. Purity is >10% by SDS-PAGE. Specific Activity is 20 U/μg, where one U=1 pmol/min under assay condition of 25 mM Tris/Cl, pH8.0, 137 mM NaCl, 2.7 mM KCl, 1 mM MgCl2, 0.1 mg/ml BSA, 100 μM HDAC substrate, and 13.2 ng/μl HDAC1, incubation for 30 min at 30° C.
as §2, §3
HDAC1: 75 nM HDAC1 and 50 μM HDAC substrate are in the reaction buffer and 1% DMSO final. Incubate for 2 hours at 30° C.
as §4, §5, §6

For assay [4], the system named is HIF-1α. As to the kind of experiment: HIF1 activation, ODD reporter assay. Format: cell-based. The following applies: measured at 10 μM. As to the method:
as §7

SMILES strings stand for the structures.

T2 sequence (Q13547 whole entry): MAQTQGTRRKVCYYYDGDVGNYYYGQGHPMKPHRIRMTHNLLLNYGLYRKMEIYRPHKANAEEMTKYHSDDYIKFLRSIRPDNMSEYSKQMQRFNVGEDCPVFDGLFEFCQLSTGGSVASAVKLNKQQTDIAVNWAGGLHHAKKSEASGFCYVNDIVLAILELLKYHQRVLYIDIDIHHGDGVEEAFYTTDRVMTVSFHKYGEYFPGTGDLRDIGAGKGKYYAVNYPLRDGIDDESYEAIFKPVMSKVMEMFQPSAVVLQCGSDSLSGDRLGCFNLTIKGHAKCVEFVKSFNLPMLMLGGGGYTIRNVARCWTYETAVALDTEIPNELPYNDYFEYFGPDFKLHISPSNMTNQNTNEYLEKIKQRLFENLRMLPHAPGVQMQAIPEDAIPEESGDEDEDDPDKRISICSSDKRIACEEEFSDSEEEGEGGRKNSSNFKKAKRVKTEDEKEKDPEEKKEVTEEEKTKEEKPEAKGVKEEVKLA

In the case of `CC1(C)CN(Cc2ccc(C(=O)NO)cc2)c2ccccc21` [II-ING-65, 4-((3,3-Dimethylindolin-1-yl)methyl)-N-hydroxybenzamide], the IC50 in assay [1] is 24.5 nM; in assay [3], 18700 nM. For the same compound, the fold induction at 10 µM in assay [2] is 1.8; in assay [4], 2.8.

Take `O=C(NO)c1ccc(CN2CCc3cc([N+](=O)[O-])ccc32)cc1` [II-ING-57, N-Hydroxy-4-((5-nitroindolin-1-yl)methyl)benzamide]: the half-inhibitory concentration (IC50) in assay [1] worked out at 1.4 nM; in assay [3], 1970 nM. For the same compound, the figures for the fold induction at 10 µM in assay [2] and in assay [4] were 6.6 and 3.9, respectively.

Take `O=C(NO)c1ccc(CNc2nc3ccccc3n2-c2ccccc2)cc1` [II-ING-87, N-hydroxy-4-(((1-phenyl-1H-benzo[d]imidazol-2-yl)amino)methyl)benzamide]: the IC50 in assay [1] came out at 13 nM; in assay [3], 3230 nM. Further, the fold induction at 10 µM in assay [2] came out at 1.2; in assay [4] it was 1.

On to `O=C(NO)c1ccc(CN2CC3(CC3)c3cc(F)ccc32)cc1` [II-ING-68, 4-((5′-Fluorospiro[cyclopropane-1,3′-indolin]-1′-yl)methyl)-N-hydroxybenzamide], for which the IC50 in assay [1] worked out at 8.2 nM; in assay [3], 4700 nM. Besides, the fold induction at 10 µM in assay [2] is 6.2; in assay [4], 5.8.

Take `O=C(NO)c1cccc(CN2C(=O)C(F)(F)c3ccccc32)c1` [II-ING-100, 3-((3,3-Difluoro-2-oxoindolin-1-yl)methyl)-N-hydroxybenzamide]: the 50% inhibitory concentration (IC50) is 5560 nM in assay [1] and at least 30000 nM in assay [3]. The fold induction at 10 µM is 1.5 in assay [2] and 1 in assay [4].

In the case of `C[N+]1(C)CCC2(CC1)C(=O)N(Cc1ccc(C(=O)NO)cc1)c1ccccc12` [II-ING-118], the IC50 is 5.8 nM in assay [1] and 7880 nM in assay [3]. Also, the fold induction at 10 µM in assay [2] worked out at 2; in assay [4] it was 1.3.

For the compound `O=C(NO)c1ccc(CN2CCc3cc(Cl)ccc32)cc1F` [II-ING-51, 4-((5-Chloroindolin-1-yl)methyl)-2-fluoro-N-hydroxybenzamide], the IC50 in assay [1] is 40.2 nM. Besides, the fold induction at 10 µM is 1.6 in assay [2] and 7.2 in assay [4].

In the case of `CC1(C)C(=O)N(Cc2ccc(C(=O)NO)cc2)c2ccccc21` [II-ING-101, 4-((3,3-Dimethyl-2-oxoindolin-1-yl)methyl)-N-hydroxybenzamide], the IC50 in assay [1] is 5.1 nM; in assay [3], 7880 nM. Moreover, the fold induction at 10 µM amounted to 3.4 in assay [2] and 1 in assay [4].

On to `O=C(NO)c1ccc(CN2CCc3cc(F)c(Cl)cc32)cc1` [II-ING-56, 4-((6-Chloro-5-fluoroindolin-1-yl)methyl)-N-hydroxybenzamide], for which the IC50 in assay [1] worked out at 4.6 nM; in assay [3], 7820 nM. Further, the values for the fold induction at 10 µM in assay [2] and in assay [4] were 5.5 and 7.8, respectively.

As for `O=C(NO)c1ccc(CN2CCc3ccc(OCc4ccccc4)cc32)cc1` [II-ING-61, 4-((6-(Benzyloxy)indolin-1-yl)methyl)-N-hydroxybenzamide], the IC50 stood at 25.2 nM in assay [1] and 1850 nM in assay [3]. Besides, the values for the fold induction at 10 µM in assay [2] and in assay [4] were 2.2 and 7, respectively.

On to `Cn1c(NCc2ccc(C(=O)NO)cc2)nc2cc(Cl)ccc21` [II-ING-85, 4-(((5-chloro-1-methyl-1H-benzo[d]imidazol-2-yl)amino)methyl)-N-hydroxybenzamide], for which the IC50 in assay [1] was 2.7 nM; in assay [3], 1500 nM. The fold induction at 10 µM in assay [2] stood at 1.3; in assay [4], 1.1.

Take `C[N+]1(C)CCC2(CC1)C(=O)N(Cc1ccc(C(=O)NO)cc1)c1ccccc12` [II-ING-109, 1-(4-(Hydroxycarbamoyl)benzyl)-1′,1′-dimethyl-2-oxospiro[indoline-3,4′-piperidin]-1′-ium]: the IC50 in assay [1] turned out to be 18 nM; in assay [3] it was 19700 nM. The compound further came in with a Nrf2 fold activation in assay [2] of 1.5 fold. This compound registered an HIF-1α fold activation in assay [4] of 1.0 fold.
